Results: paper PMC8567874, “Metronomic delivery of orally available pemetrexed-incorporated colloidal dispersions for boosting tumor-specific immunity” (Drug Delivery, 2021)
Where two headings read alike, the source gives them in different places.

Key:
[1] = In vivo pharmacokinetic study in rats; set-up: species or system Sprague–Dawley (SD) rats
Method: The separated plasma samples were kept at −80 °C before analysis and the drug concentration in each plasma sample was determined by LC-MS. […] Agilent Technologies, Santa Clara, CA, USA), conditioned with 500 µL of methanol, followed by 500 µL of deionized water. After loading the standards or samples into the cartridges, the unadsorbed particles were washed out with 500 µL of deionized water and methanol. […] PMX and IS were ionized using electrospray ionization (ESI) source in positive ion mode under a capillary voltage of 3.5 kV, drying gas flow rate of 3.1 L/min, and drying gas temperature of 300 °C. […] Pharmacokinetic parameters were estimated using a non-compartmental model in WinNonlin® software (ver. 5.3; Pharsight Corp., Mountain View, CA, USA). All data were expressed as means ± standard deviations (SDs), or standard errors of the mean (SEMs). Statistical analysis was performed by one-way analysis of variance (ANOVA) followed by Tukey’s multiple comparison test for unpaired data with more than three means. In all analyses, p < .05 was taken to indicate statistical significance.

LLC cell-bearing mice = test: In vivo antitumor efficacy in LLC cell-bearing mice; set-up: species or system C57BL/6 mice
Method: The in vivo dose-dependent antitumor effects of oral PMX/DL(1:1)-CD compared to PMX-IV were evaluated by inoculating LLC cells at a density of 1 × 10^6 cells/100 μL PBS (pH 7.4) into the right dorsal flanks of 6-week-old female C57BL/6 mice. The oral doses for PMX/DL(1:1)-CD with antitumor activities without toxic effects were determined based on our previous study (Maharjan et al., [2019]). […] The body weights and tumor volumes of all mice were measured every 3 days. Tumor volume was then calculated as a^2 × b × 0.52, where a and b were the width and length of the tumor, respectively. The mice were sacrificed and the tumor masses were measured 21 days after drug administration.

CT26.CL25 cells [2] = test: Immunofluorescence (confocal) analysis of ICD induction; assay type: cell-based; details: CT26.CL25, 300 µM, 48 h, confocal microscopy
Method: CT26.CL25 cells, cultured in coverslips at 1 × 10^4 cell density, were treated with 300 µM DL, 300 µM PMX, or PMX/DL (equivalent to 300 µM PMX) for 48 h. The PMX dose was converted from the Cmax of the pharmacokinetic profile in patients treated with 500 mg/m^2 PMX-IV (Li et al., [2007]). The cells were then washed with PBS, fixed in 10% formalin solution, and incubated with a cell membrane marker, Texas Red-X conjugated wheat germ agglutinin solution (5 µg/mL), for 10 min at room temperature. The cells were washed and permeabilized with 1% Triton-X solution for 40 min at room temperature. The cells were then incubated overnight with primary anti-CRT (1:200) or anti-HMGB-1 (1:200) antibodies at 4 °C after washing with PBS. On the following day, the cells were washed and incubated with secondary anti-rabbit Alexa Fluor 488 (1:400; Invitrogen; Thermo Fisher Scientific) for 1 h at room temperature and then stained with DAPI. Confocal laser scanning microscopy (TCS SP8; Leica Microsystems, Wetzlar, Germany) was used to obtain images.

CT26.CL25 cells [3] = test: Immunoblotting of CRT and HMGB-1; assay type: cell-based; details: CT26.CL25, 300 µM, 48 h, western blot
Method: CT26.CL25 cells (1 × 10^5 per well) cultured in 6-well plates were treated with 300 µM DL, 300 µM PMX or PMX/DL (equivalent 300 µM PMX) for 48 h. The cells were then lysed in RIPA buffer with protease and phosphatase inhibitors (GenDEPOT, Barker, TX, USA). Each sample was loaded with 20 µg of protein and fractionated using SDS-PAGE (Biosesang, Gyeonggi-do, South Korea), followed by wet transfer to nitrocellulose membrane (Bio-Rad Laboratories, Inc., Hercules, CA, USA). Anti-CRT, anti-HMGB-1, GAPDH rabbit mAb (Cell Signaling Technology, Danvers, MA, USA), and anti-rabbit IgG peroxidase (Sigma–Aldrich) antibodies were used.

[4] = Sprague-Dawley, rat, plasma, IV, 10 mg/kg PMX
[5] = Sprague-Dawley, rat, plasma, oral, 20 mg/kg PMX

Nc1nc2[nH]cc(CCc3ccc(C(=O)N[C@@H](CCC(=O)O)C(=O)O)cc3)c2c(=O)[nH]1 [PMX, Pemetrexed]
Cmax ([1]; IV, 10 mg/kg PMX): 32300 ± 1220 ng/mL | bioavailability ([1]; IV, 10 mg/kg PMX (reference)): 100% | AUC(0-inf) [1, 4]: 25300 ± 3560 ng·h/mL | AUC(0-t) [1, 4]: 25100 ± 3560 ng·h/mL | half-life [1, 4]: 57.2 ± 2.58 min | AUC(0-inf) [1, 5]: 8960 ± 89 ng·h/mL | AUC(0-t) [1, 5]: 3930 ± 380 ng·h/mL | Tmax [1, 5]: 30 min | half-life [1, 5]: 786 ± 109 min | bioavailability ([1]; Sprague-Dawley, rat, plasma, oral, 20 mg/kg PMX, read-out: Bioavailability): 7.8 ± 0.755% | Cmax ([1]; Sprague-Dawley, rat, plasma, oral, 20 mg/kg PMX, read-out: Cmax): 579 ± 73 ng/mL | Antitumor efficacy compared to the control group (LLC cell-bearing mice; IV 150 mg/kg PMX once every 3 weeks): 60.9% | Body weights compared to the control group (LLC cell-bearing mice; repeated administration for 3 weeks, all dose groups): did not change significantly | CRT-fluorescence compared to controls and DL-treated cells (CT26.CL25 cells [2]): more intense | HMGB-1-release compared to controls and DL-treated cells (CT26.CL25 cells [2]): higher | CRT- and HMGB-1-protein content compared to untreated and DL-treated cells (CT26.CL25 cells [3]): higher
